Results on two compounds are retold here after US10993935B2, “Compositions and methods for treatment of lung infections” (priority 2018, dated 2021).

The MIC50 is an inhibitory concentration at the 50% level, which refers to growth in some studies and to a panel of isolates in others. The MIC90 is an inhibitory concentration at the 90% level, which refers to growth in some studies and to a panel of isolates in others.

Molecules are shown by their SMILES. In brackets after ≈: the same amount, converted by molar mass. Where two headings read alike, the source gives them in different places.

In assay [1] the test system is P. aeruginosa biofilms. Nature of the assay: Biofilm reduction assay (crystal violet). Format: cell-based, Pseudomonas aeruginosa. The settings on record: PAO1, CF001, CF010; 24 h biofilms treated at 3×MIC. Here is the method:
FIGS. 3A-3B include graphs showing biofilm and cell viability reduction from treatment with TOB and/or RFX, where (FIG. 3A) biofilms were grown for 24 h in a 96-well plate and then treated with TOB, RFX, or TOB and RFX at a concentration of 3×MIC, or where (FIG. 3B) biofilms were grown for 24 h in a 96-well plate and then treated with TOB, RFX, or TOB and RFX at concentration of 3×MIC. Two-way ANOVA analysis was used with statistical significance set as a P value of <0.01 (****, P<0.0001; **, P<0.001; *, P<0.01).
Biofilm Reduction Assay. A biofilm reduction assay was used to determine the reduction of biofilms in P. aeruginosa strains by TOB and/or RFX. Briefly, biofilms were grown in a flat bottom 96-well microplate (Corning) using 200 μl LB of 1.0-1.5×10^5 inoculum of lab and clinical strains of non-mucoid and mucoid P. aeruginosa. After 24-30 h incubation at 37° C., the media was removed, and plates were washed with PBS. New media containing 1-5×MIC90 of TOB and/or RFX was added to the plate in a checkerboard pattern to determine synergy of biofilm reduction. After 24 h incubation at 37° C., the media was removed and 200 μl of 0.1% aqueous crystal violet was added and left at room temperature 0.5 h. […] The plates were then read via OD at 595 nm using SpectraMax i3x plate reader to compare biofilm dispersion between TOB and/or RFX. […]

For assay [2], the system named is P. aeruginosa PAO1 with bioluminescent operon (luxCDABE). Kind of assay: Murine pneumonia model, multiple-dose treatment, lung bacterial load. It counts as in vivo, DBA/2 mice. To be noted: 300 mg doses at 6, 8 and 10 h post-infection (3× TOB, or RFX then 2× TOB); lungs at 12, 18, 24 h. From the text: FIG. 6 is a graph showing that the addition of RFX to multiple treatments of TOB results in a decrease of CFU per milliliter of P. aeruginosa in mouse lungs. Plot showing the CFU per milliliter counts of mice after being infected with P. aeruginosa and left untreated, treated with multiple doses of TOB, or treated with multiple doses of TOB with addition of RFX. Data shown represent average of 2 mice per time point per group. Two-way ANOVA was used to test for statistical significance with a P value of <0.01 (****, P<0.0001).
Female DBA/2 mice were infected at 0 hour and split into 3 experimental groups of 8: no treatment; treatment with 300 mg TOB at 6, 8, and 10 h post-infection; or treatment with 300 mg RFX at 6 h and 300 mg TOB at 8 and 10 h post-infection. Two mice from each group were sacrificed at 12, 18, and 24 h post-infection. Lungs from sacrificed mice were homogenized in 1% PPBS and tested for bacterial growth to determine CFU load per mouse. Bacteria grown were also imaged for evidence of bioluminescence. Two mice from each group were left to observe for survival.
Based on the efficacy seen with the single dose treatment a multiple dose study was used to replicate clinical treatment conditions seen with CF infections. The efficacy of TOB in multiple doses with or without RFX was determined using the established lung infection model. […]

For assay [3], the system named is Acinetobacter baumannii. Nature of the assay: RFX MIC testing against MDR clinical isolates. Format: cell-based. Here is the method:
(§1) Minimum Inhibitory Concentration Testing. MIC testing was performed as previously described. Briefly, overnight culture of bacteria was diluted in 1:100 of a 0.5 McFarland standard as inoculum. The same number of cells was grown in LB broth containing serial, two-fold dilutions of rifaximin (RFX) or tobramycin (TOB). Growth was measured via optical density (OD) at 600 nm after 24 h incubation at 37° C. Concentrations of antibiotic required for inhibition of 50% and 90% of strains were determined.
(§2) Because RFX was not a traditional treatment for P. aeruginosa infections, it was first tested whether RFX was effective in vitro against P. aeruginosa and other bacterial pathogens seen in CF. Since RFX is not used for treatment of ventilator-associated pneumonia (VAP), it was thought the isolates of tracheal aspirates from VAP patients in the ICU may be sensitive to RFX. To determine the susceptibility to RFX, resistant isolates from the Cabell Huntington Hospital were chosen to measure the minimum inhibitory concentrations (MIC) for RFX (Table 3).
(§3) MIC50 and MIC90 are the concentrations of RFX required for the growth inhibition of 50% and 90% of strains, respectively.

Assay [4] deals with Burkholderia cepacia. Nature of the assay: RFX MIC testing against MDR clinical isolates. It counts as cell-based. Here is the method: as §1, §2, §3
Assay [5] deals with Pseudomonas aeruginosa. Nature of the assay: RFX MIC testing against MDR clinical isolates. Format: cell-based. Here is the method: as §1, §2, §3
The subject of assay [6] is Staphylococcus aureus. Kind of assay: RFX MIC testing against MDR clinical isolates. Format: cell-based. Here is the method: as §1, §2, §3
In assay [7] the test system is Stenotrophomonas maltophilia. Kind of assay: RFX MIC testing against MDR clinical isolates. It counts as cell-based. Here is the method: as §1, §2, §3
The mark [8] stands for this setting: Stenotrophomonas maltophilia, 1 strain.

`NC[C@H]1O[C@H](O[C@H]2[C@H](O)[C@@H](O[C@H]3O[C@H](CO)[C@@H](O)[C@H](N)[C@H]3O)[C@H](N)C[C@@H]2N)[C@H](N)C[C@@H]1O` [TOB, tobramycin]: the “reduction of preformed biofilm (biofilm aggregates)” value in assay [1] is listed as “significantly reduced biofilm as compared to the untreated control”. In assay [2], the “bacterial growth in the lungs” value is “around 10^8 CFUs”.

With `CO[C@H]1/C=C/O[C@@]2(C)Oc3c(C)c(O)c4c(O)c(c5c(nc6cc(C)ccn65)c4c3C2=O)NC(=O)/C(C)=C\C=C\[C@H](C)[C@H](O)[C@@H](C)[C@@H](O)[C@@H](C)[C@H](OC(C)=O)[C@@H]1C` [RFX, rifaximin], the MIC50 in assay [3] (Acinetobacter baumannii, 9 strains, concentration inhibiting growth of 50% of strains) was less than 0.5 µg/mL; in assay [4] (Burkholderia cepacia, 4 strains, concentration inhibiting growth of 50% of strains), 16 µg/mL (≈ 20.4 µM); in assay [5] (26 MDR clinical isolates, concentration inhibiting growth of 50% of strains), 8 µg/mL (≈ 10.2 µM); in assay [5] (Pseudomonas aeruginosa, MDR P. aeruginosa, read-out: MIC50), 8 µg/mL (≈ 10.2 µM); in assay [6] (22 strains, concentration inhibiting growth of 50% of strains) it was 2 µg/mL (≈ 2.54 µM); in assay [6] (MDR S. aureus including MRSA), 2 µg/mL (≈ 2.54 µM). Further, the MIC50 in assay [7] (setting [8]) came to 16 µg/mL (≈ 20.4 µM). The MIC90 is less than 0.5 µg/mL in assay [3] (Acinetobacter baumannii, 9 strains, concentration inhibiting growth of 90% of strains); 32 µg/mL (≈ 40.7 µM) in assay [4] (Burkholderia cepacia, 4 strains, concentration inhibiting growth of 90% of strains); 16 µg/mL (≈ 20.4 µM) in assay [5] (26 MDR clinical isolates, concentration inhibiting growth of 90% of strains); 16 µg/mL (≈ 20.4 µM) in assay [5] (Pseudomonas aeruginosa, MDR P. aeruginosa, read-out: MIC90); 16 µg/mL (≈ 20.4 µM) in assay [6] (22 strains, concentration inhibiting growth of 90% of strains); 16 µg/mL (≈ 20.4 µM) in assay [6] (MDR S. aureus including MRSA). For the same compound, the MIC90 in assay [7] (setting [8]) was determined as 16 µg/mL (≈ 20.4 µM). Moreover, the “growth of clinical isolates” value in assay [3] (clinical isolates, in words) was “effectively inhibit the growth”; in assay [4] (clinical isolates, in words), “effectively inhibit the growth”; in assay [7] (clinical isolates, in words), “effectively inhibit the growth”.
